Data as given in patent US20220062233A1 (The Board of Trustees of the Leland Stanford Junior …, priority 2018, published 2022).
Like-named read-outs stand apart in the source and are kept apart here.

How the values were obtained:
mutant HTT [1] = assay: Mutant HTT assay in lymphoblastoid cells (LBC), Western blot; assay type: cell-based, human; details: read-out: LBC IC20 (nM) mHTT, 3 days compound treatment
Method: (§1) B. Mutant and Wild-Type HTT Assay in Lymphoblastoid Cells (LBC)
(§2) a. Cell Culturing and Compound Treatment
(§3) Lymphoblastoid cells derived from a Huntington's disease patient with 250 CAG repeats in the mutant HTT allele (GM14044 from Coriell Institute) were cultured in RPMI 1640 (Corning Cellgro, 10-040-CV) containing fetal bovine serum (Atlanta Biologicals, S11150). 4×10^5 cells were seeded on a 24-well plate and incubated with testing compound for 3 days. The cell suspension was then transferred to a 1.5 ml Eppendorf tube. Cells were collected by centrifugation and washed once with PBS. After all liquid was removed, the cell pellet was placed at −80° C. for at least 10 minutes. Lysis buffer [30 mM Tris-HCl (pH 8.0), 5 mM NaCl, 0.1% Triton X-100] with the proteinase inhibitor cocktail (P8340 from Sigma-Aldrich) was then added to the cells. Following centrifugation (14 k rpm for 15 min at 4° C.), the supernatant was collected. The protein concentrations were determined by BCA assay (Pierce, ThermoFisher).
(§4) Equal amounts of protein were loaded onto 4-12% gel (Invitrogen, WG1403A). After electrophoresis, the gels were transferred to nitrocellulose membranes by wet transfer at 72V for 3 hrs. […] The protein levels of mutant HTT, wild-type HTT, TBP, and tubulin were determined by immunoblotting with anti-polyQ specific antibody (clone MW1), anti-Huntingtin antibody (Abcam, ab45169), anti-TBP antibody (Sigma, T1827) and anti-alpha tubulin antibody (Sigma, T9026). Blots were imaged on a Li-Cor Odyssey infrared imager. The band intensities were determined by Li-Cor Odyssey software.

wild-type HTT = assay: Wild-type HTT assay in lymphoblastoid cells (LBC), Western blot; assay type: cell-based, human
Method: as §1, §2, §3, §4

[2] = target: T1, interaction between Supt4h and NGN (subunit of Supt5h) (Homo sapiens, UniProt O00267+P63272); assay: Split Gaussia luciferase complementation assay (M2-8 Luciferase); assay type: cell-based; details: M2-8 cells
T1 construct: expressed in transfected cells
Method: A. Split Gaussia Luciferase Complementation Assay […]
i: pNBR-X1-Supt4-Gluc1 and pNEBR-X1-NGN-Gluc2
The HA-Supt4h and Flag-NGN fragments are amplified by PCR using the plasmid pHA-Supt4h-YC and pFlag-NGN-YN and sub-cloned individually into pcDNA3.1-Gluc1 and pcDNA3.1-Gluc2 (described in “A highly sensitive protein-protein interaction assay based on Gaussia luciferase” published at Nat Methods. 2006 December; 3(12):977-9. Epub 2006 Nov. 12). Then HA-Supt4h-Gluc1 and Flag-NGN-Gluc2 are amplified by PCR and inserted to pNEBR-X1-Hygro (New England BioLabs), which contain RheoSwitch responsive element under the control of RheoSwitch ligand. […]
ii: pNEBR-X1-Supt4h-G1-NGN-G2
PCR products containing the sequence from 5XRE to polyA in pNEBR-X1-NGN-G2 are inserted to pNEBR-X1-Supt4h-G1 at Pcil site to generate Supt4h-G1 and NGN-G2 bidirectional under their own RheoSwitch responsive element and polyA in the same plasmid. […]
b. Stable Cloned Cell Line i: 293-R1 is a cloned cell line which is engineered to constitutively express RSL1 receptor/activator by transfecting HEK 293 cells with pNEBR-R1 plasmid (New England BioLabs) and selected with blasticidin. […]
ii: M2-8 is a cloned 293-R1 cell which can inducibly express pNEBR-X1-Supt4h-G1-NGN-G2 by addition of RSL1. Two point mutations ([…] and M110I) are introduced to the GL1 and GL2 for better stability according to “A high-throughput cell-based Gaussia luciferase reporter assay for identifying modulators of fibulin-3 secretion” published in J Biomol Screen. 2013 July; 18(6):647-58. The cell line is selected by hygromycin. […]
c. Cell Culture and Transfection Condition
All the HEK-293 cells and derivative clones are maintained in DMEM containing 10% FBS plus corresponding antibiotics (250 μg/ml hygromycin B, 10 μg/ml blasticidin or both) at 37° C., 5% CO2. All the transfections are done by using Lipofectamine 2000 (Invitrogen) according to the manufacturer's instructions. […]
d. Bioluminescence Assay from Cell Lysates
Plasmids harboring the Gluc1 and Gluc2 are co-transfected in a 1:1 ratio into 293-R1 cells plated on tissue culture treated 24-well plates using Lipofectamine 2000 according to the manufacturer's instructions. For stable M2-8 cells, the cells are directly plated into 96-well or 384-well white plates. Twenty-four hours later, RheoSwitch ligand with or without test compound is added to the cells for induction/drug treatment. After 24 hr, the cells are washed with PBS and the plate was stored at −20° C. overnight. Lysis buffer [30 mM Tris-HCl (pH 8.0) 5 mM NaCl, 0.1% Triton X-100] with 10 μg/ml native coelenterazine (Nanolight Technology) is then added to the cells at room temperature for one hour in the dark. After shaking for about 1 min, 40 μl of cell lysate are transferred to a white 96-well plate. For M2-8 in white micro plate, no transfer is needed. Signal intensities (integrated 100 ms) were read on Tecan Infinite M200 or M1000.
The split Gaussia luciferase complementation assay measures the interaction between Sup4h and NGN. NGN is the subunit of Supt5h that binds to Supt4h.

M2-8 cells = assay: M2-8 Cell viability Assay; assay type: cell-based; details: at the concentration of 1000 nM
[3] = tested on: Lymphoblastoid cells (GM14044); assay: LBC cell viability (Cell Titer-Glo); assay type: cell-based, human; details: at the concentration of IC20, 3-day compound treatment
Method: Cell viability was determined by Cell Titer-Glo reagent (Promega, PRG9243). After 3-day compound treatment, 15 μl of cell suspension was taken out from plate and incubated with 10 μl of CTG reagent. The values of reaction mixture were detected by Tecan.

mutant HTT [4] = assay: Mutant HTT assay in induced pluripotent stem cells (iPSC); assay type: cell-based, human; details: HD patient iPSCs, one day incubation; numeric bounds; read-out: iPSC IC20 (nM) mHTT
Method: C. Mutant HTT Assay in Induced Pluripotent Stem Cells (iPSC) a. Cell Culturing and Compound Treatment
Huntington's disease patient iPSCs (ND50036 from NINDS) were detached into single cells by Accutase (25058CI from Corning), counted and plated on a 24-well plate coated with Matrigel (354277 from Corning) at density of 7,000 cells/well. After 48 hrs, compounds were added to the cell culture medium mTeSR1 (85850 from StemCell Technologies) and the cells were incubated for one day. The medium was then removed, and the cells were washed with PBS. After all liquid was removed, the plate was placed at −80° C. overnight. Lysis buffer [30 mM Tris-HCl (pH 8.0), 5 mM NaCl, 0.1% Triton X-100] with the complete proteinase inhibitor cocktail (5892791001 from Sigma-Aldrich) was then added to the cells. Cell samples were lysed on an orbital plate shaker at 4° C. at 700 rpm for 30 min. The supernatants from spinning (14 k rpm for 10 min) were collected. The protein concentrations were determined by BCA assay (23225 from Pierce, ThermoFisher). […]
b. Detection of Mutant HTT Protein
Equal amounts of protein lysate collected from each sample were added to a 96-well plate that had been coated with a human HTT specific monoclonal antibody. After washing away any unbound substances, a biotinylated anti-human mutant HTT specific detection antibody was added. Streptavidin-horseradish peroxidase was subsequently added, followed by TMB Substrate Solution, which yielded a blue product that turns yellow when the Stop Solution was added. The intensity of the color measured was in proportion to the amount of mutant HTT bound in the initial step. The mutant HTT values are then interpolated from a standard curve.

[5] = 3 days compound treatment, read-out: LBC IC20 (nM) wtHTT

Compound | IC20 (mutant HTT [1]) [nM] | IC20 (wild-type HTT; [5]) [nM] | IC50 [2] [nM] | M2-8 Cell viability (M2-8 cells) | LBC viability at IC20 [3] | IC20 (mutant HTT [4]) [nM] | IC20 (wild-type HTT; read-out: LBC IC20 (nM) wtHTT, 3 days compound treatment) [nM]
Nc1ccc(CN[C@@H]2CCCc3c2[nH]c2ccc(Br)cc32)cc1 [Compound 21, (R)—N-(4-aminobenzyl)-6-bromo-2,3,4,9-tetrahydro-1H-carbazol-1-amine] | 101 to 300 | > 1000 | ≤ 100 | + (cell viability is greater than 50% at the concentration of 1000 nM) | * (cell viability is greater than 60% at the concentration of IC20) |  | 
COc1cccc(CN[C@@H]2CCCc3c2[nH]c2ccc(Br)cc32)c1 [Compound 24, (R)-6-bromo-N-(3-methoxybenzyl)-2,3,4,9-tetrahydro-1H-carbazol-1-amine] | 101 to 300 | > 1000 | ≤ 100 | + (cell viability is greater than 50% at the concentration of 1000 nM) | * (cell viability is greater than 60% at the concentration of IC20) |  | 
COCc1ccc(CN[C@@H]2CCCc3c2[nH]c2ccc(Br)cc32)cc1 [Compound 27, (R)-6-bromo-N-(4-(methoxymethyl)benzyl)-2,3,4,9-tetrahydro-1H-carbazol-1-amine] | 101 to 300 | > 1000 | ≤ 100 | + (cell viability is greater than 50% at the concentration of 1000 nM) | * (cell viability is greater than 60% at the concentration of IC20) |  | 
Brc1ccc2[nH]c3c(c2c1)CCC[C@H]3NCc1cccc2ccccc12 [Compound 19, (R)-6-bromo-N-(naphthalen-1-ylmethyl)-2,3,4,9-tetrahydro-1H-carbazol-1-amine] | 101 to 300 | > 1000 | ≤ 100 | + (cell viability is greater than 50% at the concentration of 1000 nM) | * (cell viability is greater than 60% at the concentration of IC20) |  | 
COCC(N[C@@H]1CCCc2c1[nH]c1ccc(Br)cc21)c1ccc(C(C)(C)O)cc1 (single isomer, unassigned) [Compound 53] | > 1000 | > 500 | 101 to 300 | + (cell viability is greater than 50% at the concentration of 1000 nM) |  | > 100 | 
COc1ccc(CN[C@@H]2CCCc3c2[nH]c2ccc(Br)cc32)cc1 [Compound 25, (R)-6-bromo-N-(4-methoxybenzyl)-2,3,4,9-tetrahydro-1H-carbazol-1-amine] | 301 to 1000 | > 1000 | 101 to 300 | + (cell viability is greater than 50% at the concentration of 1000 nM) | * (cell viability is greater than 60% at the concentration of IC20) |  | 
N#Cc1ccc(CN[C@@H]2CCCc3c2[nH]c2ccc(Br)cc32)cc1 [Compound 26, (R)-4-(((6-bromo-2,3,4,9-tetrahydro-1H-carbazol-1-yl)amino)methyl)benzonitrile] | 101 to 300 |  | 101 to 300 | + (cell viability is greater than 50% at the concentration of 1000 nM) | * (cell viability is greater than 60% at the concentration of IC20) |  | > 1000
COCC(N[C@@H]1CCCc2c1[nH]c1ccc(Br)cc21)c1ccc(CN2CCN(C(C)=O)CC2)cc1 (some centres unmarked) [Compound 62] |  |  | 101 to 300 | + (cell viability is greater than 50% at the concentration of 1000 nM) |  |  | 
C(#CC1CC1)c1ccc2[nH]c3c(c2c1)CCC[C@H]3NCc1ccccc1 [Compound 34, (R)—N-benzyl-6-(cyclopropylethynyl)-2,3,4,9-tetrahydro-1H-carbazol-1-amine] |  |  | > 1000 | + (cell viability is greater than 50% at the concentration of 1000 nM) |  |  | 
OB(O)c1cccc(CN[C@@H]2CCCc3c2[nH]c2ccc(Br)cc32)c1 (single isomer, unassigned) [Compound 39] | > 1000 | > 1000 | ≤ 100 | + (cell viability is greater than 50% at the concentration of 1000 nM) |  | > 100 | 
OCCOCc1ccc(CN[C@@H]2CCCc3c2[nH]c2ccc(Br)nc32)cc1 [Compound 64] |  |  | 101 to 300 | + (cell viability is greater than 50% at the concentration of 1000 nM) |  |  | 
O=[N+]([O-])c1ccc(CN[C@@H]2CCCc3c2[nH]c2ccc(Br)cc32)cc1 [Compound 30, (R)-6-bromo-N-(4-nitrobenzyl)-2,3,4,9-tetrahydro-1H-carbazol-1-amine] |  |  | 101 to 300 | + (cell viability is greater than 50% at the concentration of 1000 nM) |  |  | 
OCCc1ccc2[nH]c3c(c2c1)CCC[C@H]3NCc1ccccc1 [Compound 12, (R)-2-(1-(benzylamino)-2,3,4,9-tetrahydro-1H-carbazol-6-yl)ethan-1-ol] |  |  | > 1000 | + (cell viability is greater than 50% at the concentration of 1000 nM) |  |  | 
